Experimental data published in patent publication US20240115270A1, “DIRECT ORAL ANTICOAGULANT-ELUTING MEDICAL DEVICE” (BOSTON SCIENTIFIC SCIMED, INC., priority 2021, published 2024).

Key:
[1] = system: heparinized bovine blood; assay: Clot formation on dip-coated PET fabric disks in heparinized bovine blood; conditions: PVDF-HFP/drug 90/10 dip-coated 15 mm PET fabric disks, ACT about 190 seconds, 37° C., various time points, images FIG. 5
Experimental: A solution of PVDF-HFP and DOAC was prepared in 80/20 acetone/DMSO (wt/wt). The PVDF-HFP to drug ratio was 90/10 (wt/wt) and the solution solids was 0.7%. The DOAC drugs evaluated were apixaban (Eliquis®), rivaroxaban (Xarelto®) and edoxaban (Savaysa®) 15 mm diameter polyethylene terephthalate (PET) fabric disks were dip coated into the polymer/drug solution at a dip speed of 5 mm/sec. The coated disks were dried for 30 min at 125° C. in a convection oven. The drug coated disks and PVDF-HFP only control disks were placed in cups containing heparinized bovine blood adjusted to an active clotting time (ACT) of about 190 seconds using protamine. The cups were placed on an orbital shaker incubator at 37° C. and disks were removed at various time points and imaged. The disks were then dried and weighed to determine clot weight. […] The clot weights provided in FIG. 6 verify the minimal amount of thrombus formed on the DOAC treated fabric.

[2] = system: bovine blood; assay: Thrombogenicity of spray-coated Watchman device in bovine blood; conditions: bovine blood ACT=210, 15 minutes
Experimental: A drug/polymer solution of PVDF-HFP and DOAC was prepared in 80/20 acetone/DMSO (wt/wt). The PVDF-HFP to drug ratio was 60/40 (wt/wt) and the solution solids was 2%. The DOAC drug evaluated was rivaroxaban (Xarelto). A 24 mm diameter Watchman device was spray-coated with the polymer/drug solution at a flow rate of 10 ml/hr to apply a basecoat. The device was dried for 30 min at 125° C. in a convection oven and then spray-coated with a topcoat solution (2% PVDF-HFP in 100% acetone), at a flow rate of 10 ml/hr. The total basecoat weight was 38.8 mg and the topcoat weight was 18.7 mg. The spray-coated device was then placed in PBS/Tween solution at 37° C. for 11 days to simulate in vivo drug elution. The device was then rinsed with DI water and dried. A PVDF-HFP-only coated control device was also subjected to the same incubation and rinsing protocol. The DOAC-eluting device and the control device were placed in the same container of bovine blood (ACT=210) on an orbital shaker incubator at 37° C. for 15 minutes to assess the thrombogenicity of the two devices.
A solution of PVDF-HFP and DOAC was prepared in 40/60 acetone/DMF (wt/wt). The PVDF-HFP to drug ratio was 70/30 (wt/wt) and the solution solids was 4%. The DOAC drug evaluated was apixaban. […]

Row | Compound | thrombus (clots) compared to the PVDF-HFP coated control [1] | thrombus formation on partially coated (masked) device ([2]; PVDF-HFP/drug 70/30 basecoat plus topcoat, proximal face only, 24 mm Watchman, after 7 days in PBS/Tween at 37° C., FIG. 10B) | thrombus formation on device versus PVDF-HFP-only coated control device ([2]; PVDF-HFP/drug 60/40 basecoat plus topcoat on 24 mm Watchman, after 11 days in PBS/Tween at 37° C., FIGS. 9A-9D)
1 | COc1ccc(-n2nc(C(N)=O)c3c2C(=O)N(c2ccc(N4CCCCC4=O)cc2)CC3)cc1 [apixaban] | significantly less thrombus | inhibited thrombus formation only on the proximal face of the device | –
2 | O=C(NC[C@H]1CN(c2ccc(N3CCOCC3=O)cc2)C(=O)O1)c1ccc(Cl)s1 [rivaroxaban] | significantly less thrombus | – | inhibited thrombus formation on the proximal face of the device to a greater degree than did the control device
